In PubChem BioAssay (NCI):
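Five compound concentrations were applied to cells in 96-well plates for 48 hours; endpoints were derived by simple linear interpolation of the resulting dose-response curve. Definition used: TGI = concentration required for complete inhibition of growth.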 Where a SMILES comes first, the peptide text is derived from it. [ ]: non-standard residue; d: D form. Ava = NCCCCC(=O)O; Mpa = O=C(O)CCS

Columns and labels:
Experiment in all cases: DTP human tumour cell line panel, 48 h
[1] = test system: A549 NSCLC
[2] = test system: BT-549 breast
[3] = test system: HT29 colon
[4] = test system: MOLT-4 leukemia
[5] = test system: NCI-H226 lung
[6] = test system: NCI-H460 lung
[7] = test system: NCI/ADR-RES ovarian
[8] = test system: SK-OV-3 ovarian
[9] = test system: SW-620 colon
[10] = test system: UACC-257 melanoma

Structure (SMILES)	TGI [1] [µM]	TGI [2] [µM]	TGI [3] [µM]	TGI [4] [µM]	TGI [5] [µM]	TGI [6] [µM]	TGI [7] [µM]	TGI [8] [µM]	TGI [9] [µM]	TGI [10] [µM]
CC(NC(=O)CCS)C(=O)NC(C)C(=O)NC(Cc1c[nH]c2ccccc12)C(=O)NC(Cc1c[nH]cn1)C(=O)NC(CO)C(=O)NC(Cc1c[nH]c2ccccc12)C(=O)NCCCCC(=O)NC(C)C(=O)NC(CCC(N)=O)C(=O)NC(CCCCN)C(=O)NC(C)C(=O)NC(CCCNC(=N)N)C(=O)NC(CCCCN)C(N)=O (stereo not given) ([Mpa]AAWHSW[Ava]AQKARK-NH2; configuration not given here)	> 100	> 100	> 100	> 100	> 100	> 100	> 100	> 100	> 100	63.1
CC(=O)C1=C(C)N(c2ccccc2)C2(O)C3=C(C(=O)c4ccccc4C3=O)C(O)=CC12Cl (stereo not given)	> 100	30.3	8.45	> 100	55.7	> 100	> 100	> 100	> 100	19.3
CC(C)(C)OC(=O)NC(CSCc1ccc(C(=O)c2ccccc2)cc1)C(=O)N1CCN(CCCCN2c3ccccc3Sc3cc(N=[N+]=[N-])ccc32)CC1 (stereo not given)	> 100	> 100	> 100	> 100	> 100	> 100	> 100	> 100	> 100	> 100
COc1cc2c(cc1OC)C(CCN)=NCC2	> 100	33.6	41.3	43	> 64.4	> 100	> 69	> 100	17.1	32.9
COc1ccc(SCc2cc(OC)ccc2OC)cc1	> 100	> 74.3	> 100	> 91.2	> 100	> 100	> 100	> 71.8	> 100	> 100
CC1=NNC(=O)C1C1(C(=O)O)CC(c2c[nH]c3ccccc23)=NC(=S)N1 (stereo not given)	> 100	> 100	78.9	52.7	85.8	50.1	> 100	> 100	> 100	> 100
CCOC(=O)NC(Nc1ccc(F)cc1F)(C(F)(F)F)C(F)(F)F	> 100	> 100	> 100	> 100	> 100	> 100	> 100	> 100	> 100	> 100
CC(C#N)(NO)C(C)(C#N)NO (stereo not given)	> 100	> 100	> 100	> 100	> 100	> 100	> 100	> 100	> 100	> 100
COc1cc(/C=C/C(=O)CC(=O)/C=C/c2cc(C)c(O)c(OC)c2)cc(C)c1O	> 100	> 100	> 100	> 100	> 100	> 100	> 100	> 100	> 100	> 100
COC(=O)[C@@]12CSC[C@]1(C(=O)OC)N[C@@H](c1ccccc1O)C2	> 100	> 100	> 100	> 100	> 100	> 100	> 100	> 100	> 100	> 100
Cc1cn(S(=O)(=O)c2ccccc2)c2c(OCc3ccccc3)cc([N+](=O)[O-])cc12	> 100	> 100	> 100	> 100	> 100	> 100	> 100	> 100	> 100	> 100
O=C(Cn1c2ccc(Br)cc2c2nc3ccccc3nc21)NCc1ccccc1	> 100	> 100	> 100	> 100	> 100	> 100	> 100	> 100	> 100	> 100
N=c1oc2cc(O)ccc2cc1C(=O)Nc1ccccn1	> 100	> 100	> 100	> 100	> 100	> 100	> 100	> 100	> 100	> 100
COC(=O)C1(Cc2ccc3c(c2)CCC3)Cc2ccc3c(c2C1=O)CCC3 (stereo not given)	> 100	> 46.1	> 34.8	36.5	> 87.2	> 63.9	13.8	> 100	> 71.1	> 100
CCO/N=C\c1ccc2oc(-c3ccccc3)cc(=O)c2c1	17	24.4	5.34	19.9	7.01	4.19	0.436	24	> 100	66
